Test results reported in patent US20240239775A1, “FXR REGULATOR, PREPARATION METHOD THEREFOR, PHARMACEUTICAL COMPOSITION THEREOF AND USE THEREOF” (QINGDAO RUIJI MEDICAL TECHNOLOGY CO., LTD., priority 2021, published 2024).

Experiments:
FXR = target: T1, FXR (Homo sapiens, UniProt Q96RI1); assay: FXR antagonist screening by TR-FRET (LanthaScreen TR-FRET FXR co-activation assay kit); format: biochemical; conditions: Table 1.1, FXR antagonistic activity; TR-FRET with CDCA; geometric means of at least two independent runs
T1 construct: 5 μL of 20 nM FXR-LBD Complete Coregulator buffer G; purchased ThermoFisher PV4833
T1 sequence (Q96RI1 262-486 limits assumed): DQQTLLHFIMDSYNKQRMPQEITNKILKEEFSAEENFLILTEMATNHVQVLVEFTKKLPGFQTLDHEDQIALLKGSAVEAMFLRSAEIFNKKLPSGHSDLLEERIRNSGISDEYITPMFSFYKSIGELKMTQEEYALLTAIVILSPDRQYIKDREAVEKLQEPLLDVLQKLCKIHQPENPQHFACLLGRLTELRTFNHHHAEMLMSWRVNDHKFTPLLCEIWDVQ
Method in brief: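 FXR-LBD (20 nM working solution) mixed with compound, CDCA (200 μM working solution) as agonist, Fluorescein-SRC2-2 and Tb-anti-GST antibody in Coregulator buffer G; 10 h at room temperature. Coactivator recruitment read by TR-FRET, triplicate wells.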

Row | Compound | melting point | IC50 (FXR)
1 | Cc1c(C(=O)O)oc2ccc(S(=O)(=O)N(CCc3ccccc3)Cc3ccc(C(F)(F)F)cc3)cc12 [Example F27-S32, 3-methyl-5-(N-(4-(trifluoromethyl)benzyl)-N-phenethylsulfamoyl)benzofuran-2-carboxylic acid] | > 192 °C | 10 to 50 µM
2 | Cc1c(C(=O)O)oc2ccc(S(=O)(=O)N(CCc3ccccc3)Cc3ccc(C(N)=O)cc3)cc12 [Example F27-S33, 3-methyl-5-(N-(4-carbamoylbenzyl)-N-phenethylsulfamoyl)benzofuran-2-carboxylic acid] | > 380 °C (dec.) | 50 to 100 µM
3 | Cc1c(C(=O)O)oc2ccc(S(=O)(=O)N(CCc3ccccc3)Cc3ccc(OC(F)(F)F)cc3)cc12 [Example F27-S34, 3-methyl-5-(N-(4-(trifluoromethoxy)benzyl)-N-phenethylsulfamoyl)benzofuran-2-carboxylic acid] | 216 to 217 °C | 10 to 50 µM
4 | Cc1c(C(=O)O)oc2ccc(S(=O)(=O)N(CCc3ccccc3)Cc3ccc(SC(F)(F)F)cc3)cc12 [Example F27-S35, 3-methyl-5-(N-(4-(trifluoromethylthio)benzyl)-N-phenethylsulfamoyl)benzofuran-2-carboxylic acid] | 165 to 166 °C | 10 to 50 µM
5 | Cc1c(C(=O)O)oc2ccc(S(=O)(=O)N(CCc3ccccc3)Cc3ccc(C(C)C)cc3)cc12 [Example F27-S36, 3-methyl-5-(N-(4-isopropylbenzyl)-N-phenethylsulfamoyl)benzofuran-2-carboxylic acid] | 206 to 207 °C | 10 to 50 µM
6 | Cc1c(C(=O)O)oc2ccc(S(=O)(=O)N(CCc3ccccc3)Cc3ccc(C(C)(C)C)cc3)cc12 [Example F27-S37, 3-methyl-5-(N-(4-tert-butylbenzyl)-N-phenethylsulfamoyl)benzofuran-2-carboxylic acid] | 206 to 207 °C | 10 to 50 µM
7 | CC(=O)c1ccc(CN(CCc2ccccc2)S(=O)(=O)c2ccc3oc(C(=O)O)c(C)c3c2)cc1 [Example F27-S38, 3-methyl-5-(N-(4-acetylbenzyl)-N-phenethylsulfamoyl)benzofuran-2-carboxylic acid] | > 380 °C (dec.) | 50 to 100 µM
8 | Cc1c(C(=O)O)oc2ccc(S(=O)(=O)N(CCc3ccccc3)Cc3ccc(C(=O)O)cc3)cc12 [Example F27-S39, 3-methyl-5-(N-(4-carboxybenzyl)-N-phenethylsulfamoyl)benzofuran-2-carboxylic acid] | 254 to 255 °C | 50 to 100 µM
9 | Cc1c(C(=O)O)oc2ccc(S(=O)(=O)N(CCc3ccccc3)Cc3ccc(CC(=O)O)cc3)cc12 [Example F27-S41, 3-methyl-5-(N-(4-(carboxymethyl)benzyl)-N-phenethylsulfamoyl)benzofuran-2-carboxylic acid] | 182 to 183 °C | 50 to 100 µM
10 | Cc1c(C(=O)O)oc2ccc(S(=O)(=O)N(CCc3ccccc3)Cc3ccc(/C=C/C(=O)O)cc3)cc12 [Example F27-S42, (E)-3-methyl-5-(N-(4-(2-carboxyvinyl)benzyl)-N-phenethylsulfamoyl)benzofuran-2-carboxylic acid] | 270 to 271 °C | 50 to 100 µM
11 | Cc1c(C(=O)O)oc2ccc(S(=O)(=O)N(CCc3ccccc3)Cc3ccc4ccccc4c3)cc12 [Example F27-S45, 3-methyl-5-(N-(naphthalen-2-ylmethyl)-N-phenethylsulfamoyl)benzofuran-2-carboxylic acid] | > 380 °C (dec.) | 10 to 50 µM
12 | Cc1c(C(=O)O)oc2ccc(S(=O)(=O)N(CCc3ccccc3)Cc3c(F)cccc3F)cc12 [Example F27-S46, 3-methyl-5-(N-(2,6-difluorobenzyl)-N-phenethylsulfamoyl)benzofuran-2-carboxylic acid] | 180 to 181 °C | 10 to 50 µM
13 | Cc1c(C(=O)O)oc2ccc(S(=O)(=O)N(CCc3ccccc3)Cc3c(F)cccc3Cl)cc12 [Example F27-S47, 3-methyl-5-(N-(2-fluoro-6-chlorobenzyl)-N-phenethylsulfamoyl)benzofuran-2-carboxylic acid] | 195 to 196 °C | 0.1 to 10 µM
14 | Cc1c(C(=O)O)oc2ccc(S(=O)(=O)N(CCc3ccccc3)Cc3c(F)cccc3C(F)(F)F)cc12 [Example F27-S48, 3-methyl-5-(N-(2-fluoro-6-(trifluoromethyl)benzyl)-N-phenethylsulfamoyl)benzofuran-2-carboxylic acid] | 99 to 100 °C | 10 to 50 µM
15 | Cc1c(C(=O)O)oc2ccc(S(=O)(=O)N(CCc3ccccc3)Cc3c(Cl)cccc3Cl)cc12 [Example F27-S49, 3-methyl-5-(N-(2,6-dichlorobenzyl)-N-phenethylsulfamoyl)benzofuran-2-carboxylic acid] | 176 to 177 °C | 0.1 to 10 µM
16 | Cc1cccc(C)c1CN(CCc1ccccc1)S(=O)(=O)c1ccc2oc(C(=O)O)c(C)c2c1 [Example F27-S50, 3-methyl-5-(N-(2,6-dimethylbenzyl)-N-phenethylsulfamoyl)benzofuran-2-carboxylic acid] | 211 to 212 °C | 0.1 to 10 µM
17 | Cc1c(C(=O)O)oc2ccc(S(=O)(=O)N(CCc3ccccc3)Cc3ccc(F)cc3F)cc12 [Example F27-S51, 3-methyl-5-(N-(2,4-difluorobenzyl)-N-phenethylsulfamoyl)benzofuran-2-carboxylic acid] | 155 to 156 °C | 10 to 50 µM
18 | Cc1c(C(=O)O)oc2ccc(S(=O)(=O)N(CCc3ccccc3)Cc3ccc(Cl)cc3F)cc12 [Example F27-S52, 3-methyl-5-(N-(2-fluoro-4-chlorobenzyl)-N-phenethylsulfamoyl)benzofuran-2-carboxylic acid] | > 380 °C (dec.) | 10 to 50 µM
19 | Cc1c(C(=O)O)oc2ccc(S(=O)(=O)N(CCc3ccccc3)Cc3ccc(Br)cc3F)cc12 [Example F27-S53, 3-methyl-5-(N-(2-fluoro-4-bromobenzyl)-N-phenethylsulfamoyl)benzofuran-2-carboxylic acid] | > 380 °C (dec.) | 10 to 50 µM
20 | Cc1c(C(=O)O)oc2ccc(S(=O)(=O)N(CCc3ccccc3)Cc3ccc(C(F)(F)F)cc3F)cc12 [Example F27-S55, 3-methyl-5-(N-(2-fluoro-4-(trifluoromethyl)benzyl)-N-phenethylsulfamoyl)benzofuran-2-carboxylic acid] | 174 to 175 °C | 50 to 100 µM
21 | Cc1c(C(=O)O)oc2ccc(S(=O)(=O)N(CCc3ccccc3)Cc3ccc(F)cc3Cl)cc12 [Example F27-S56, 3-methyl-5-(N-(2-chloro-4-fluorobenzyl)-N-phenethylsulfamoyl)benzofuran-2-carboxylic acid] | 145 to 146 °C | 10 to 50 µM
22 | Cc1c(C(=O)O)oc2ccc(S(=O)(=O)N(CCc3ccccc3)Cc3ccc(F)cc3C(F)(F)F)cc12 [Example F27-S57, 3-methyl-5-(N-(2-(trifluoromethyl)-4-fluorobenzyl)-N-phenethylsulfamoyl)benzofuran-2-carboxylic acid] | 156 to 157 °C | 10 to 50 µM
23 | Cc1c(C(=O)O)oc2ccc(S(=O)(=O)N(CCc3ccccc3)Cc3ccc(C(F)(F)F)cc3C(F)(F)F)cc12 [Example F27-S58, 3-methyl-5-(N-(2,4-bis(trifluoromethyl)benzyl)-N-phenethylsulfamoyl)benzofuran-2-carboxylic acid] | 155 to 156 °C | 50 to 100 µM
24 | Cc1c(C(=O)O)oc2ccc(S(=O)(=O)N(CCc3ccccc3)Cc3ccc(Br)cc3C(F)(F)F)cc12 [Example F27-S59, 3-methyl-5-(N-(2-(trifluoromethyl)-4-bromobenzyl)-N-phenethylsulfamoyl)benzofuran-2-carboxylic acid] | 150 to 151 °C | 50 to 100 µM
25 | Cc1c(C(=O)O)oc2ccc(S(=O)(=O)N(CCc3ccccc3)Cc3ccc(Cl)cc3Cl)cc12 [Example F27-S60, 3-methyl-5-(N-(2,4-dichlorobenzyl)-N-phenethylsulfamoyl)benzofuran-2-carboxylic acid] | 177 to 178 °C | 10 to 50 µM
26 | Cc1ccc(F)cc1CN(CCc1ccccc1)S(=O)(=O)c1ccc2oc(C(=O)O)c(C)c2c1 [Example F27-S61, 3-methyl-5-(N-(2-methyl-5-fluorobenzyl)-N-phenethylsulfamoyl)benzofuran-2-carboxylic acid] | > 380 °C (dec.) | 10 to 50 µM
27 | Cc1c(C(=O)O)oc2ccc(S(=O)(=O)N(CCc3ccccc3)Cc3c(F)cc(Cl)cc3F)cc12 [Example F27-S62, 3-methyl-5-(N-(2,6-difluoro-4-chlorobenzyl)-N-phenethylsulfamoyl)benzofuran-2-carboxylic acid] | > 380 °C (dec.) | 10 to 50 µM
28 | Cc1c(C(=O)O)oc2ccc(S(=O)(=O)N(CCc3ccccc3)c3ccc(N4CCOCC4)cc3)cc12 [Example F27-S63, 3-methyl-5-(N-(4-morpholinophenyl)-N-phenethylsulfamoyl)benzofuran-2-carboxyli acid] | > 380 °C (dec.) | 50 to 100 µM
29 | Cc1c(C(=O)O)oc2ccc(S(=O)(=O)N(CCc3ccccc3)c3ccc(N4CCN(C)CC4)cc3)cc12 [Example F27-S64, 3-methyl-5-(N-(4-(4-methylpiperazin-1-yl)phenyl)-N-phenethylsulfamoyl)benzofuran-2-carboxylic acid] | 152 to 153 °C | 50 to 100 µM
